pIC50, pKi: −log10 of the molar value.
Assays:
[1] = biological target: T1, human D4.2 receptor (Homo sapiens, UniProt P21917, DEL265-296); assay: radioligand binding to dopamine receptor D4.2 ([3H] Spiperone); conditions: 10 μM ligand
T1 sequence (P21917 with tags, fused parts or gaps DEL265-296): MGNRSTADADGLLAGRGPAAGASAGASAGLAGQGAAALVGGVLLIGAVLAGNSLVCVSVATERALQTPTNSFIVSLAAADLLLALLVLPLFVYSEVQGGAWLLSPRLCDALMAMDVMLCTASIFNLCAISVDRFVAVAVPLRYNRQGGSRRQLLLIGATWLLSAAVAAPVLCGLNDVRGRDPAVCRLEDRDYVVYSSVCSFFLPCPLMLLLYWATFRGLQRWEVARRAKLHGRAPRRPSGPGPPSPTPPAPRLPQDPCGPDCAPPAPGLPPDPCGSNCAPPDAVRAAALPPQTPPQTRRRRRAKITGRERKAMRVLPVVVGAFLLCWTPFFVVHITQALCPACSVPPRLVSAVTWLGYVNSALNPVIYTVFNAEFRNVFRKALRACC
Procedure: Screening of the disclosed compounds for potential ability to interact with dopamine receptor D4.2 is carried out by method of radioligand binding. […] From the cells transfected in this way membrane species are prepared by homogenization of these cells in glass homogenizer with the subsequent separation of plasmatic membranes from cell nuclei, mitochondrias and cell wreckages by differential centrifugation. […] After incubation samples are filtered in vacuo on glass-microfiber filters G/F (Millipor, USA), filters are washed three times with cold solution of medium and radioactivity is measured by scintillation counter MicroBeta 340 (Perkin Elmer, USA). Nonspecific binding which makes up 10% of the overall binding is determined by incubation of membrane species with radioligand in the presence of 10 μM of Haloperidol.
Spiperone is used as positive control. Tested compounds' binding to the receptor is determined by their ability to displace radioligand and expressed in percent of displacement (% I). Values of % I are calculated according to the following equation:
wherein: TA—is overall radioactivity in the presence of radioligand only, CA—is radioactivity in the presence of radioligand and tested compound and NA—is radioactivity in the presence of radioligand and Haloperidol (10 μM).

[2] = biological target: T2, human α1D receptor (Homo sapiens, UniProt P25100); assay: radioligand binding to adrenergic receptor α1D ([3H] Prazosin)
T2 construct: expressed in transfected cells; host or cells: HEK-293
T2 sequence (P25100 1-572): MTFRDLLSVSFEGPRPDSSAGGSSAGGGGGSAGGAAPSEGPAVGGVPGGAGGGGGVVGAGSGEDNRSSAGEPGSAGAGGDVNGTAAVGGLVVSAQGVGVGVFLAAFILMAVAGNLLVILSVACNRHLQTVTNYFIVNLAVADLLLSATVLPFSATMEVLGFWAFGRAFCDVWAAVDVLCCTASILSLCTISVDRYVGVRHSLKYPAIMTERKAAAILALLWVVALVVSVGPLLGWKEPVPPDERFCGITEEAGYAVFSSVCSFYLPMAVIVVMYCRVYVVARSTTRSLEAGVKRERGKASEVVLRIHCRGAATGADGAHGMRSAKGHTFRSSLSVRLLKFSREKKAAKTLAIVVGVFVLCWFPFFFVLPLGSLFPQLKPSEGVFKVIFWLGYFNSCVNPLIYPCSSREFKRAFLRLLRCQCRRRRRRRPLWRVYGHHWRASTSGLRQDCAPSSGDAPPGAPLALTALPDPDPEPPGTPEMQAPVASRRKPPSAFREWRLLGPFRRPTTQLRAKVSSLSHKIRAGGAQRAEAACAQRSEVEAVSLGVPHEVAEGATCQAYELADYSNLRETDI
From the text: 6-C. […] For this purpose sDNA of human α1D receptor is expressed in HEK-293 cells, as it was described in [T L Theroux, T A Esbenshade, R D Peavy and K P Minneman. Coupling efficiencies of human alpha 1-adrenergic receptor subtypes: titration of receptor density and responsiveness with inducible and repressible expression vectors. Mol. Pharmacol.; 50: 1376-1387, 1996]. […] Prazosin is used as positive control.

[3] = biological target: T3, human H2 receptor (Homo sapiens, UniProt P25021); assay: radioligand binding to histamine receptor H2 ([125I] Aminopotentidine); conditions: 10 μM ligand
T3 construct: expressed in transfected cells; host or cells: CHO-K1
From the text: Proc Natl Acad Sci USA. 87(5): 1658-1662, 1990]. […] Proc Natl Acad Sci USA. 87(5): 1658-1662, 1990]. […] Tiotidine is used as positive control.

[4] = biological target: T4, human H1 receptor (Homo sapiens, UniProt P35367); assay: radioligand binding to histamine receptor H1 ([3H] Pyrilamine); conditions: for Histamine receptor H1, % inhibition: 10 μM ligand
T4 construct: expressed in transfected cells; host or cells: CHO-K1
From the text: Biochem Biophys Res Comm. 197(3): 1601-1608, 1993]. […] Biochem Biophys Res Comm. 197(3): 1601-1608, 1993].
Pyrilamine is used as positive control.

[5] = biological target: T5, adrenergic receptor α1B (Rattus norvegicus, UniProt P15823); assay: radioligand binding to adrenergic receptor α1B ([3H] Prazosin)
T5 construct: membrane species from rat liver (rat of Wistar breed) are prepared; from tissue; host or cells: rat (Wistar) liver membranes
T5 sequence (P15823 1-515): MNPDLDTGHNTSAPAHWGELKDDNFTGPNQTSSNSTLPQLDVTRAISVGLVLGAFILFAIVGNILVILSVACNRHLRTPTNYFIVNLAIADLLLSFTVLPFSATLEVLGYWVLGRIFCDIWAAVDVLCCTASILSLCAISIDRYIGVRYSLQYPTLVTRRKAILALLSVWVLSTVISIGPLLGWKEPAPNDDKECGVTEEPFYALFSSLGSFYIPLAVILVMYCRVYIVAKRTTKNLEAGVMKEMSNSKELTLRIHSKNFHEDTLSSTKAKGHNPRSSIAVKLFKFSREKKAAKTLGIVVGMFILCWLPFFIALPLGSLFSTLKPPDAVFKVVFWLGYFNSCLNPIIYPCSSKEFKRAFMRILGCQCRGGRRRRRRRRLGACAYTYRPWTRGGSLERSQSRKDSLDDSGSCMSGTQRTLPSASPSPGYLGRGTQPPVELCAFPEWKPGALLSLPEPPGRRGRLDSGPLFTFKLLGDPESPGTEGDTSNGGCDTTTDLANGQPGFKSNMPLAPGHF
From the text: Species heterogeneity of hepatic α1A-, α1B-, and α1C-subtypes. Biochem Biophys Res Commun. 186:760-7676 1992]. […] Prazosin is used as positive control.

[6] = biological target: T6, recombinant human 5-HT2B receptor (Homo sapiens, UniProt P41595); assay: radioligand binding to serotonin receptor 5-HT2B ([3H] Lysergic acid diethylamide)
T6 construct: expressed in transfected cells; host or cells: CHO-K1

[7] = biological target: T7, recombinant human 5-HT2C receptor (Homo sapiens, UniProt P28335); assay: radioligand binding to serotonin receptor 5-HT2C ([3H] Mesulergine)
T7 construct: expressed in transfected cells; host or cells: CHO-K1
T7 sequence (P28335 33-458): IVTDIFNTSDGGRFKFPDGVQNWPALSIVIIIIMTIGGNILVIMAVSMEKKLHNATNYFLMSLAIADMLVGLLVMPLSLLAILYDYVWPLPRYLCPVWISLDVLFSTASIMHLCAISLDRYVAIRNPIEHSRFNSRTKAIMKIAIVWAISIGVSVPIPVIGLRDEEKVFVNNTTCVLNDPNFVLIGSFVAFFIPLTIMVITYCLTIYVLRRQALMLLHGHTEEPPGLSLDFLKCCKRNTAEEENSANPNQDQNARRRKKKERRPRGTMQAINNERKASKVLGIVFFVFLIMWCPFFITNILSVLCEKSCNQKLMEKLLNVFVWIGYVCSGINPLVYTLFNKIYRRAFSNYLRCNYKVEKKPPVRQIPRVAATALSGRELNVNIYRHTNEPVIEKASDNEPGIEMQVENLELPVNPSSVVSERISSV
From the text: J. Neurochem. 69: 1449-1458, 1997]. […] SB242084 is used as positive control.

T4 sequence (P35367 whole entry): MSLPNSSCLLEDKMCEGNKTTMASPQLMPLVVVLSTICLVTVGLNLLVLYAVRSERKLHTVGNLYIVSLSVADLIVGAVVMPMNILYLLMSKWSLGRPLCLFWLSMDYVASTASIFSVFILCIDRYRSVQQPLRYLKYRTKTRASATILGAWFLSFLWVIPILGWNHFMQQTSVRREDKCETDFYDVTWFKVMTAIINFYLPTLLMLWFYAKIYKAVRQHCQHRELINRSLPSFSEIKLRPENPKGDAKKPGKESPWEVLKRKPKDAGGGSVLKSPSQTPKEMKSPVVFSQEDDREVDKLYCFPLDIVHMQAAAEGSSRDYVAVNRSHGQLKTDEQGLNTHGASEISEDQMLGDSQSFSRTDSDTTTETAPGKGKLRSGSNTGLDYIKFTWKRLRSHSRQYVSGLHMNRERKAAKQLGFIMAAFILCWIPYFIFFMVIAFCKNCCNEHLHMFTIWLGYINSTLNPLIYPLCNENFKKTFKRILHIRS
T6 sequence (P41595 whole entry): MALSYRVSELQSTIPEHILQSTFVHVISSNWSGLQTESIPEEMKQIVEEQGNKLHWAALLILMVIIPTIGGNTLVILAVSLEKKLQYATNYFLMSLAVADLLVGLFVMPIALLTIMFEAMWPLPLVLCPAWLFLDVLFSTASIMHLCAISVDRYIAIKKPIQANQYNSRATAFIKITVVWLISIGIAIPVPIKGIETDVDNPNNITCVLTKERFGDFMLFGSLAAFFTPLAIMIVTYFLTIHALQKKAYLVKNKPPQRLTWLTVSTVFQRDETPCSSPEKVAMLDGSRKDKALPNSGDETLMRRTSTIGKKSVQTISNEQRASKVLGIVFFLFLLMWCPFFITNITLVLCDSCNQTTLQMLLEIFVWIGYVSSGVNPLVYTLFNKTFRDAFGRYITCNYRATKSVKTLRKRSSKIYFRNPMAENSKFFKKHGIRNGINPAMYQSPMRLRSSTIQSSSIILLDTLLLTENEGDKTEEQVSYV
T3 sequence (P25021 whole entry): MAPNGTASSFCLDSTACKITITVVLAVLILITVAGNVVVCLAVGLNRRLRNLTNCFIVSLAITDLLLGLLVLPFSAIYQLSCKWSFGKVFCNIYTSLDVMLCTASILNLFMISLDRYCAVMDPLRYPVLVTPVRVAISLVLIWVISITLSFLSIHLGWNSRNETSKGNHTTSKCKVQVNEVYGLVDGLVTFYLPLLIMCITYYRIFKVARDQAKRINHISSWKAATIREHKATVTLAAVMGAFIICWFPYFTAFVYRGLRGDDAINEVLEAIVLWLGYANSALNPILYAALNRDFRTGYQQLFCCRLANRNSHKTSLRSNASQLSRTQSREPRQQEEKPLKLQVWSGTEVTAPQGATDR

Row | SMILES | Dopamine receptor D4.2, % inhibition [1] | α-Adrenoceptor α1D, % inhibition ([2]; 10 μM ligand) | Histamine receptor H2, % inhibition [3] | Histamine receptor H1, % inhibition [4] | α-Adrenoceptor α1B, % inhibition ([5]; 10 μM ligand) | pIC50 [2] | pKi [2] | nH 5-HT2B [6] | pIC50 [5] | pKi [5] | also measured
1 | Cc1ccc2c(c1)[C@@H]1CN(C)CCC[C@@H]1N2CCc1ccc(C)nc1.Cl.Cl.Cl (relative stereo) [1.6.1(2)•3HCl] | −11% | 87% | 66% | 102% | 93% | – | – | – | – | – | –
2 | Cc1ccc2c(c1)c1c(n2CCc2ccccn2)CCN(C)C1.Cl.Cl [1.1.2(2-3)•2HCl] | – | – | – | 98% | – | 6.55 | 6.86 | 0.913 | 7.33 | 7.59 | pIC50 ([6]; read-out: IC50 5-HT2B): 5.99; pKi ([6]; read-out: Ki 5-HT2B): 6.19
3 | Cc1ccc2c(c1)[C@H]1CN(C)CCC[C@@H]1N2CCc1cccnc1 [1.6.2(10)•3HCl] | 5% | 86% | 69% | 103% | 92% | – | – | – | – | – | inhibition at 1 µM ([7]; ligand concentration 1 μM): 99%
4 | CN1CCc2c(c3ccccc3n2Cc2ccccc2)C1 [1.9(1)•½NDSA, bis-(5-benzyl-2-methyl-2,3,4,5-tetrahydro-1H-pyrido[4,3-b]indole) naphtalene-1,5-disulfonate] | – | – | – | – | – | 5.88 | 6.18 | 0.552 | 5.80 | 6.06 | pIC50 [7]: 7.87; pKi [7]: 8.15; nH 5-HT2C [7]: 0.987; nH α1D [2]: 1.05; α-Adrenoceptor α1D, % inhibition ([2]; 3 μM ligand): 70(3 μM) %; pIC50 [4]: 8.40; pKi [4]: 8.72; nH H1 [4]: 0.789; nH α1B [5]: 0.956; α-Adrenoceptor α1B, % inhibition ([5]; 3 μM ligand): 62(3 μM) %

From patent US20110039825A1, “LIGANDS OF ALPHA-ADRENOCEPTORS, DOPAMINE, HISTAMINE, IMIDAZOLINE AND SEROTONIN RECEPTORS AND THEIR USE” (Alla Chem, LLC, priority 2007, published 2011)
